Among the data in patent US5414008A, “Imidazolyl-substituted phenylpropionic and cinnamic acid derivatives” (Bayer Aktiengesellschaft, priority 1992, dated 1995) are inhibition, IC50 and Ki values, retold here.

In assay [1] the test system is smooth muscle cells. Nature of the assay: Inhibition of the proliferation of smooth muscle cells (3H-thymidine incorporation). Type of assay: cell-based. Conditions: Sus scrofa, 10^-6 M, smooth muscle cells from pig aortas. On the procedure:
To determine the antiproliferative action of the compounds, smooth muscle cells are used which are obtained from aortas of pigs by the media explant technique [R.Ross, J. Cell. Biol. 50, 172, 1971]. The cells are inoculated into suitable culture dishes, as a rule 96-hole plates, and cultured in 5% CO2 at 37° C. for 2-3 days in medium 199 containing 7.5% FCS and 7.5% NCS, 2 mmol L-glutamine and 15 mmol HEPES, pH 7.4. The cells are then synchronised by withdrawal of serum for 2-3 days and then stimulated into growth with serum or other factors. Test compounds are simultaneously added. After 16-20 hours, 1 μCi ^3 H-thymidine is added and after a further 4 hours the incorporation of this substance into the TCA-precipitatable DNA of the cells is determined.
To determine the IC50 values, the active compound concentration is calculated which on sequential dilution of the active compound causes half-maximal inhibition of the thymidine incorporation produced by 1% FCS.
For orientation: Dividing cells build labelled thymidine or BrdU into new DNA.

Assay [2] deals with isolated rabbit aorta rings, contraction induced by angiotensin II. Kind of assay: Inhibition of vascular contraction induced by angiotensin II (AII) in isolated rabbit aorta rings in vitro. Particulars: based on 3rd = submaximal agonist concentration, read-out: IC50 against contractions induced by AII. On the procedure: Rabbits of either sex are stunned by a blow to the back of the head and bled out, or in some cases anaesthetized with Nembutal (about 60-80 mg/kg i.v.) and sacrificed by opening the thorax. The thorax aorta is removed, freed from adhering connective tissue, divided into ring segments 1.5 mm wide and individually transferred under an initial loading of about 3.5 g to 10 ml organ baths containing Krebs-Henseleit nutrient solution, which is temperature-controlled at 37° C. and aerated with 95% 02/5 % CO2, of the following composition: 119 mmol/l of NaCl; 2.5mmol/l of CaCl2 ×2H2 O; 1.2 mmol/1 of KH2 PO4; 10mmol/l of glucose; 4.8 mmol/l of KCl; 1.4 mmol/l of MgSO4 ×H2 O and 25 mmol/1 of NaHCO3.
The contractions are detected isometrically by Statham UC2 cells by means of bridge amplifiers (ifd Milheim or DSM Aalen) and digitalised and assessed by means of A/D converters (System 570, Keithley Munich). Agonist dose response curves (DRC) are plotted hourly. With each DRC, 3 or 4 individual concentrations are applied to the baths at a 4 min interval. After the end of the DRC and subsequent washing-out cycles (16 times in each case about 5 sec/min with the abovementioned nutrient solution), a 28-minute rest or incubation phase follows, during which the contractions as a rule reach the staring value again.
The height of the 3rd DRC, in a normal case, is used as a reference variable for the assessment of the test substance to be investigated in further runs, which is applied to the baths in the following DRCs in increasing doses in each case at the start of the incubation period. Each aorta ring is in this case stimulated for the whole day, always with the same agonist.
For the calculation of the IC50 (concentration at which the substance to be investigated causes a 50% inhibition), the effect is in each case based on the 3rd =submaximal agonist concentration.

In assay [3] the target is T1, angiotensin II receptor (Bos taurus, UniProt P25104).
T1 construct: Bovine adrenal gland cortices (AGC), which have been freshly removed and carefully freed from gland medulla; from tissue; host or cells: bovine adrenal gland cortex, partially purified membrane fractions
T1 sequence (P25104 1-359): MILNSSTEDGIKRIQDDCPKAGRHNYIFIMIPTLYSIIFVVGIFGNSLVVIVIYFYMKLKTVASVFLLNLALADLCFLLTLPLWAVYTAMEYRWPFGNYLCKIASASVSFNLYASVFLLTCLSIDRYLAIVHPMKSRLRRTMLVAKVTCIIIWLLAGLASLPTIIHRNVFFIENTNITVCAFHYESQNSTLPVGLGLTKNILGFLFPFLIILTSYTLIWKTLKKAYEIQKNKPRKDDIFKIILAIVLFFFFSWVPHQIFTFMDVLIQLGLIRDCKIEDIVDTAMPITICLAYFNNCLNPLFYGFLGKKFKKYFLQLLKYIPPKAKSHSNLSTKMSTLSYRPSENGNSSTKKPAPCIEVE
Nature of the assay: Angiotensin II receptor binding (3H-angiotensin II) in membrane fractions of bovine adrenal gland cortex. Conditions: bovine adrenal gland cortex membranes, 3H-angiotensin II 3-5 nM, 60 min, room temperature. On the procedure: Bovine adrenal gland cortices (AGC), which have been freshly removed and carefully freed from gland medulla, are comminuted in sucrose solution (0.32 M) with the aid of an Ultra-Turrax (Janke & Kunkel, Staufen i.B.) to give a coarse membrane homogenate and partially purified in two centrifugation steps to give membrane fractions. The receptor binding investigations are carried out on partially purified membrane fractions of bovine AGC using radioactive angiotensin II in an assay volume of 0.25 ml, which specifically contains the partially purified membranes (50-80 μg), ^3 H-angiotensin II .(3-5 nM), test buffer solution (50 mMTris, pH 7.2, 5 mM MgCl2) and the substances to be investigated. After an incubation time of 60 min at room temperature, the unbound radioactivity of the samples is separated by means of moistened glass fibre filters (Whatman GF/C) and the bound radioactivity is measured […] in a scintillation cocktail after washing the protein with ice-cold buffer solution (50 mM Tris/HCl, pH 7.4, 5% PEG 6000). The analysis of the raw data was carried out using computer programs to give Ki or IC50 values (Ki : IC50 values corrected for the radioactivity used; IC50 values: concentration at which the substance to be investigated causes a 50% inhibition of the specific binding of the radioligand).

Consider `CCCCc1nc(Cl)c(CO)n1Cc1ccc(C(CC(=O)OC(C)(C)C)c2ccccc2)cc1` (centres unmarked) [Example 18], for which, in assay [1], the inhibition – broadly, the percentage by which the read-out fell short of the control – at 1 µM was found to be 90%.

As for `CCCCc1nc(Cl)c(CO)n1Cc1ccc(C(=CC(=O)NC(CO)c2ccccc2)c2ccccc2)cc1` (centres unmarked) [Example 20], the IC50 (as a rule, the concentration that gives 50% inhibition) in assay [2] is 360 nM.

As for `CCCCc1nc(Cl)c(CO)n1Cc1ccc(/C(=C\C(=O)O)c2ccccc2)cc1` [Example 30], in assay [3], the affinity corresponds to a Ki of 340 nM. Besides, the IC50 in assay [2] worked out at 580 nM.

On to `CCCCc1nc(Cl)c(C=O)n1Cc1ccc(/C(=C/C(=O)O)c2ccccc2)cc1` [Example 31], for which, in assay [3], the Ki (commonly the dissociation constant of the complex between target and ligand, obtained from inhibition or displacement) came to 310 nM. Besides, the IC50 in assay [2] is 360 nM.

For `CCCCc1nc(Cl)c(C=O)n1Cc1ccc(C(CC(=O)O)c2ccccc2)cc1` (centres unmarked) [Example 35], the IC50 in assay [2] stood at 650 nM.

Compound `CCCCc1nc(Cl)c(CO)n1Cc1ccc(C(CC(=O)O)c2ccccc2)cc1` (centres unmarked) [Example 36] registered a Ki in assay [3] of 150 nM.

In assay [3], `CCCCc1nc(Cl)c(C=O)n1Cc1ccc(C(CC(=O)O)C2CCCC2)cc1` (centres unmarked) [Example 37] displayed a Ki of 190 nM.

`CCCCc1nc(Cl)c(C=O)n1Cc1ccc(/C(=C/C(=O)NS(=O)(=O)c2ccc(C)cc2)c2ccccc2)cc1` [Example 39]: the inhibition at 1 µM in assay [1] was 59%.

The compound `CCCCc1nc(Cl)c(C=O)n1Cc1ccc(/C(=C\C(=O)NS(=O)(=O)c2ccc(C)cc2)c2ccccc2)cc1` [Example 40] registered an inhibition at 1 µM in assay [1] of 57%.
